In patent US20080241077A1, “BENZOYLGUANIDINE SALT AND HYDRATES THEREOF” (priority 2001, published 2008):
Counter-ions that a name gives are not always drawn.

Key:
Assay type in all cases: physicochemical
[1] = Hygroscopicity of the active substance
[2] = Stability of the active substance
[3] = Solubility in physiologically acceptable solvents

- hygroscopicity [1]: not hygroscopic
- stability [2]: high degree of stability
- solubility [3]: dissolves readily
SMILES: NC(N)=NC(=O)c1ccc(N2CCN(C(=O)c3ccc[nH]3)CC2)c(C(F)(F)F)c1 [formula 1, 4-[4-(2-pyrrolylcarbonyl)-1-piperazinyl]-3-trifluoromethylbenzoylguanidine hydrochloride]
